Tests used:
[1] = Metabolic stability in human liver microsomal preparation; assay type: in vitro ADME; details: liver microsomes; 1-hour incubation with human liver microsomal preparation; read-out: compound remained
From the text: Many compounds can never become a drug because they are rapidly metabolized in the liver. It is important to confirm that metabolic stability is adequate to the desired distribution of compound throughout the body.

monoarthritis rats = test: CFA-induced monoarthritis, Hargreaves and Tail Flick tests; assay type: in vivo, rat
From the text: The subcutaneous intraplantar injection of complete Freund's adjuvant (CFA) into the local area of an animal can cause severe inflammatory pain around the injected area. This CFA-induced inflammatory pain has been widely used as a kind of pain model in the field of pain research since it was reported. Inflammatory pain was induced by an injection of complete Freund's adjuvant into the right hindpaw of the rats (S. H. Butler, F. Godefroy, J. M. Besson and J. Weilfugazza. 1992. A limited arthritic model for chronic pain studies in the rat. Pain, 48: 73-81). The paw withdrawal latency was used to assess the inflammatory pain according to the method of Hargreaves et al. (Hargreaves K, Dubner R, Brown F, Flores C, and Joris J. 1988. A new and sensitive method for measuring thermal nociception in cutaneous hyperalgesia. Pain 32: 77-88, 1988). The CFA-injected area of the right paw was placed on a constant-intensity radiant heat source and the time of paw-withdrawal latency was measured by observing the animal's paw-withdrawal response after applying initial heat to the left or right paws. Additionally, the Tail Flick test was performed in order to assess the secondary hyperalgesia.

c-fos = test: Formalin-induced c-fos expression in spinal cord dorsal horn (immunohistochemistry); assay type: in vivo, rat; details: formalin-treated rats
rats (Wister, male) [2] = test: Hepatotoxicity markers in plasma; assay type: in vivo, rat
Description: (§1) The toxicological studies were carried out with rats (Wister, male) injected i.p. once a day with 3.23 mg/100 g body mass during seven days.
Liver is the major organ of toxicity. Blood samples were collected and the following hepatotoxicity markers were assayed in the plasma: • Alanine transaminase (ALT), • Aspartate transaminase (AST) • Alkaline phosphatase (ALP) • Total bilirubin (TBILI) • Gamma glutamyl transpeptidase (GGT)
Increased levels of the liver enzymes ALT, AST, ALP and GGT in the plasma would indicate lesions in liver. Increased RBL would be a sign of faulty bilirubin production/hemolysis and/or bilirubin metabolism (in liver).

rats (Wister, male) [3] = test: Histological alterations in liver, kidney and spleen; assay type: in vivo, rat; details: hematoxylin/eosin; 3.23 mg/100 g i.p. seven days
Description: as §1
For investigation of histological alterations in liver, kidney and spleen hematoxylin/eosin-stained sections of fixed tissue were used.

CYP3A4 = CYP3A4 (Homo sapiens, UniProt P08684); test: CYP inhibition; assay type: in vitro ADME; details: probe substrates midazolan and testosterone
Chain of CYP3A4 (P08684 whole entry): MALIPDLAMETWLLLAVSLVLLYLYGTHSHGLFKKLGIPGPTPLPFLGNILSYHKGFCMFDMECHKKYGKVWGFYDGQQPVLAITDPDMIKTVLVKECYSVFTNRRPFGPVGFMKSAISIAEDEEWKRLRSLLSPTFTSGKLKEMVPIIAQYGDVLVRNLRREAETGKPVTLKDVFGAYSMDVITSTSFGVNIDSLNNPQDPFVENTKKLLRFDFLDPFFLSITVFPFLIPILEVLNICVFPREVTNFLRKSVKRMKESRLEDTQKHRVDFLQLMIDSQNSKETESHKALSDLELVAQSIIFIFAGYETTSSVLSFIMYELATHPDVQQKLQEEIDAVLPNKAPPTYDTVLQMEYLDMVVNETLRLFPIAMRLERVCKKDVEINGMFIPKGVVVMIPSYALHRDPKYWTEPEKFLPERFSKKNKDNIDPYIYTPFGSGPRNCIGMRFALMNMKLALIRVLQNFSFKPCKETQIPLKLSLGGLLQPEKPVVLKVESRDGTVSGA
From the text: CYP3A4 is one of the most important enzymes involved in the metabolism of xenobiotics in the body, promoting the oxidation of the largest range of substrates of all the CYPs and is present in the largest quantity of all the CYPs in the liver.

rats = test: Formalin test (paw jerks); assay type: in vivo, rat; details: acute and tonic-chronic phases; i.p. 10 min before 5% formalin s.c.
From the text: The formalin test was introduced as a model of tonic pain in 1977 (Dubuisson D., Dennis S. G. 1977. The formalin test: a quantitative study of the analgesic effect of morphine, meperidine and brain stem stimulation in rats and cats. Pain; 4:74-161). In rats, formalin generates an initial phase of activity (phase 1, acute), a quiescent interphase, and a second phase of activity (phase 2, tonic/chronic), and this is seen with spontaneous behaviors, firing of afferent neurons, and activity in dorsal horn neurons. Both active phases involve ongoing peripheral afferent neural activity; inflammation contributes to phase 2 activity and the interphase results from active inhibition. Within the spinal cord, formalin increases c-fos expression in neurons and causes activation of microglia, and these may contribute more prominently to longer term changes.
We performed the formalin test due to its validity as a model to study central sensitization events at the spinal level after peripheral inflammatory states. The standard two types of nociception were analyzed; the short-lasting nociception caused by a direct effect on nociceptors followed by a long-lasting nociception due to inflammation. KTP-NH2 was administered i.p. 10 min previous to formalin injection. […] The paw jerks were videotaped and measured both in the acute and in the tonic-chronic phases. […]

[4] = Partition into lipid bilayer vesicles (fluorescence titration); assay type: physicochemical; details: mammal-mimetic lipid bilayer vesicle; numerical treatment of fluorescence titration
From the text: We performed biophysical studies using fluorescent methodologies in order to characterize the interaction of KTP-NH2 with liposomes representing human cell membranes (Santos N. C., Prieto M. and Castanho M. A. 2003. Quantifying molecular partition into model systems of biomembranes: an emphasis on optical spectroscopic methods. Biochim Biophys Acta 1612: 123-135.). A clear interaction of KTP-NH2 with the lipid bilayers was observed. […] When titrated with a mammal-mimetic lipid bilayer vesicle (circles), the fluorescence intensity of the phenolic moiety increases due to insertion in the apolar environment created by the lipids. The POPC system mimetizes the external layer of human cell membranes, whereas POPG lipidic mixture mimetizes the internal layer of human cell membranes.
In order to confirm that these plasma-stable KTP-NH2 derivatives maintained their lipophilicity, their potential interaction with human cell membranes was assessed. Again, we performed biophysical studies using fluorescent methodologies (Santos N. C., Prieto M. and Castanho M. A. 2003. Quantifying molecular partition into model systems of biomembranes: an emphasis on optical spectroscopic methods. Biochim Biophys Acta 1612: 123-135.).

[5] = Cytotoxicity (LDH release and ATP); assay type: cell-based; details: human hepatocytes; LDH and ATP determination; read-out: LC50 (the source's name)
Description: Cytotoxicity was assessed with a cell-based assay using human hepatocytes. Cell death was assayed by quantifying plasma membrane damage or rupture through measurement of the release of lactate dehydrogenase (LDH) (Legrand, C. et al. 1992. Lactate dehydrogenase (LDH) activity of the cultured eukaryotic cells as marker of the number of dead cells in the medium. J. Biotechnol. 25: 231-243), a stable cytoplasmic enzyme present in most cells. Determination of cell viability was performed by quantifying ATP (Cree I. A and Andreotti P. E. 1997. Measurement of cytotoxicity by ATP-based luminescence assay in primary cell cultures and cell lines. Toxicology in vitro, 11: 553-556), a marker for cell viability because it is present in all metabolically active cells and the concentration declines very rapidly when the cells undergo necrosis or apoptosis.

## N=C(N)NCCC[C@H](NC(=O)[C@@H](N)Cc1ccc(O)cc1)C(N)=O [KTP-NH2, L-Tyr-L-Arg-NH2]
[1]
  remaining at 1 h: 93%
Monoarthritis rats
  analgesic effect in chronic inflammatory pain: efficacy
c-fos
  formalin-induced c-fos protein expression in dorsal horn: significantly decreased
Rats (Wister, male) [2]; i.p. once a day 3.23 mg/100 g for seven days
  GGT in plasma: trace amounts, below the detection limit
Rats (Wister, male) [2]; i.p. once a day 3.23 mg/100 g for seven days vs control
  hepatotoxicity markers AST, ALT, ALP, total bilirubin in plasma: no toxic effects were detected
Rats (Wister, male) [3]
  histological alterations in kidney and spleen: no histological modifications
  histological alterations in liver: no sign of hepatic necrosis
CYP3A4
  CYP3A4 inhibition: not to inhibit
rats
  number of paw-jerks: reduced significantly
[4]
  local concentration in the model membrane of mammals relative to surrounding bulk aqueous phase: approx. 2500 fold
[5]
  CC50: > 125 µM
